# Reference: patent US8048872B2, “Treatment of hyperproliferative diseases with vinca alkaloid N-oxide and analogs” (Stat of Oregon Acting by and Through The Oregon State Board …, priority 2006, dated 2011)
# Values joined by “and” are separate entries in the source; they are usually repeats but may differ in a detail not shown here. Identical values can stand only once. Like-named read-outs stand apart in the source and are kept apart here.
# What was measured:
# [1] = test system: murine P388 leukemic tumor cells; test: in vivo; conditions: P388; 5 mg/kg i.v. q3d×5
# Method: (§1) For example, B6D2F1 mice (n=8/group) were inoculated subcutaneously (sc) in the right flank with 1×10^6 murine L1210 leukemic tumor cells. […] Test agents were administered on multiple treatment regimen (q3d×5) to yield optimal dose schedule benefit. Vehicle control treated mice served as the negative control group; mice treated with the bioreduced parent compounds, vincristine and vinblastine, dosed at their […] (MTDs), served as the positive control groups. Tumors were measured with calipers twice weekly and tumor volume calculated using the formula: Tumor Volume (mm^3)=((width)^2×length)/2. Animals were monitored for signs of toxicity and weighed daily for the first 5 days of the study and then twice-weekly until the study end. As pre-defined in the protocol, each animal was actively euthanized when its tumor reached the pre-determined endpoint size of 2000 mm^3 or at the conclusion of the study (day 37) whichever came first. The time to endpoint (TTE) was calculated for each mouse as TTE (days)=(log10(endpoint volume mm^3)−b)/m where b is the intercept and m is the slope of the line obtained by linear regression of a log-transformed tumor growth data set. Treatment outcome was determined from tumor growth delay (TGD) which is defined as the increase in median TTE in a treatment (T) group as compared to the control (C) group (TGD=T−C) expressed in days or as a percentage of the median TTE of the control group % TGD=((T−C)/C)×100. […] Statistical significance between the treated vs. control groups was evaluated by logrank analysis.
# This model was developed by subcutaneously inoculating B6D2F1 mice (n=8/group) with 1×10^6 murine P388 leukemic tumor cells using similar methodology to that described above for L1210. […] Agents were administered on multiple treatment regimen (q3d×5) to yield optimal dose schedule benefit. Efficacy of treatment with the N-oxide analogs was determined by Tumor Growth Delay (TGD) and Kaplan-Meier survival analysis as described for L1210, the exception being that the conclusion of the study was day 45 or the predefined endpoint size of 2000 mm^3 whichever came first. Vehicle control treated mice served as the negative control group; mice treated with the standard agents, vincristine and vinblastine, dosed at their MTDs, served as the positive control groups.
# [2] = in vivo; conditions: female, nude, mouse, iv
# Method: In one example, female nude mice (n=10) were inoculated subcutaneously with 15×10^6 human K562 myelogenous leukemia cells in a 1:1 ratio with matrigel on the right flank. Tumor volumes were monitored and calculated using the formula: Tumor volume=(a^2×b/2) where ‘a’ is the smallest diameter and ‘b’ is the largest diameter. Once the established tumors reached approximately 75-150 mm^3 (individual tumor volumes may range from […]) the mice were assigned to the various vehicle control and treatment groups such that the mean tumor volumes in the treated groups were within 10% of the mean tumor weight in the vehicle control group. On the same day (day 1) and days 4, 7, 10, and 13, vinca-alkaloid N-oxide analogs (VCR-NO, VBL-NO) were administered intravenously according to a q3d×5 schedule. Mice were also treated with vehicle (negative control) and the standard agents, vinblastine and vincristine (positive controls). Tumor volumes were recorded three times a week starting when tumors were palpable and including the day of study termination. Animals were monitored for signs of toxicity and body weights were recorded twice a week starting on the first day of treatment and including the day of study termination. […] The mean day of sacrifice were calculated to determine the tumor growth delay and tumor growth inhibition effects of each test article as compared to vehicle control. […] Statistical significance between the treated vs. control groups was evaluated by logrank analysis.
# [3] = in vivo; conditions: B6D2F1, mouse, in vivo, iv
# Method: as §1
# [4] = test system: murine L1210 leukemic tumor cells; test: in vivo; conditions: L1210; 5 mg/kg i.v. q3d×5
# Method: as §1
# [5] = test system: human H460 lung adenocarcinoma
# Method: (§2) Tumor cell line were cultured in DMEM-10% FBS under standard conditions. One-hundred mm plastic culture dishes were seeded with 1×10^6 tumor cells and treated with vinca alkaloids or N-oxide analogs at a dose range of 0.01-100 nM. Cells were exposed with gentle rocking to a constant level of low oxygen (0.2% O2-5% CO2-balance N2) in a hypoxia apparatus (INVIVO2400 Hypoxia Workstation, Ruskin Technology) for 14 hr at 37° C. Identically treated cells were incubated under normoxia (air-5% CO2) at 37° C. Cells were harvested and replated in fresh medium at a density of 1×10^3 cells/well in 48-well plastic culture plates to assess viability 24-72 hr later. Briefly, Alamar Blue was added to replicate wells on Day 0 and Day 3, and cells were incubated for a further 3-6 hr at 37° C. before fluorescence readings using a plate reader (530-560 nm excitation, 590 emission). The percent inhibition of proliferation was calculated and plotted against control-treated cells at each drug concentration. […] The Hypoxia Cytotoxicity Ratio (HCR) was determined as the ratio of the IC50 of the compound under normoxic conditions vs. hypoxic conditions.
# [6] = test system: human H460 lung adenocarcinoma; test: cells; conditions: NCI-H460, 14 h
# Method: as §2
# [7] = cited from earlier work; for patients developing pneumonia: refractory chronic lymphocytic leukemia
# [8] = Formation of clear solution in aqueous vehicles; assay type: physicochemical; conditions: de-ionized water and 5% dextrose/water solutions
# [9] = acute promyelocytic leukemia patients
# [10] = non-Hodgkin's lymphoma, 9 mcg/kg/d IV days 1-5, every 21 days
# [11] = non-Hodgkin's lymphoma, 9 or 18 mcg/kg/d IV days 1-5, every 21 days, Grade III-IV
# [12] = non-Hodgkin's lymphoma, 18 mcg/kg/d IV days 1-5, every 21 days
compound,measurement,setting,value
"CC[C@]1(O)C[C@@H]2CN(CCc3c([nH]c4ccccc34)[C@@](C(=O)OC)(c3cc4c(cc3OC)N(C)[C@H]3[C@@](O)(C(=O)OC)[C@H](OC(C)=O)[C@]5(CC)C=CCN6CC[C@]43[C@@H]65)C2)C1 [Vinblastine, vinblastine]",median day of death,4 mg/kg ip q3d×5,10.8 days
same,median day of death,6 mg/kg ip q3d×5,9.8 days
same,Median Survival,[1],30.8 days
same,Tumor Growth Delay,[1],149%
same,MTD,[2],2.5 mg/kg
same,MTD,[3],5 mg/kg
same,Median Survival,[4],24.3 days
same,Tumor Growth Delay,[4],34%
same,Hypoxia Cytotoxicity Ratio (HCR),[5],1
same,IC50,[6]; read-out: IC50 Air,20 nM
same,IC50,[6]; read-out: IC50 Hypoxia,17 nM
CCC1=C[C@@H]2CN(C1)Cc1c([nH]c3ccccc13)[C@@](C(=O)OC)(c1cc3c(cc1OC)N(C)[C@H]1[C@@](O)(C(=O)OC)[C@H](OC(C)=O)[C@]4(CC)C=CCN5CC[C@]31[C@@H]54)C2 [Vinorelbine],Anemia Grade III-IV,"[7]; human, in vivo, iv",Anemia Grade III-IV 5%
same,Constipation,"[7]; human, in vivo, iv",Constipation 3%
same,Diarrhea,"[7]; human, in vivo, iv",4%
same,Neurologic,"[7]; human, in vivo, iv",Neurologic 9%
same,Neuropathy,"[7]; human, in vivo, iv",Neuropathy 1%
same,Neutropenic Infection,"[7]; human, in vivo, iv",<1%
same,Neutropenic Sepsis,"[7]; human, in vivo, iv",Neutropenic Sepsis 3%
same,Stomatitis,"[7]; human, in vivo, iv",Stomatitis <1%
same,Thrombocytopenia,"[7]; human, in vivo, iv",Thrombocytopenia 1%
"CC1=C(/C=C/C(C)=C/C=C/C(C)=C/C(=O)O)C(C)(C)CCC1 [all-trans-retinoic acid, reference compound]",lethal pulmonary toxicity,[7]; [9],2%
same,life-threatening pulmonary toxicity,[7]; [9],11%
same,patients developing grade III or IV pulmonary toxicity (total),[7]; [9],Twenty
same,severe pulmonary toxicity,[7]; [9],7%
"Nc1nc(F)nc2c1ncn2[C@@H]1O[C@H](COP(=O)(O)O)[C@@H](O)[C@@H]1O [fludarabine phosphate, reference compound]",patients developing pneumonia,[7]; 15-25 mg/m^2 daily for five days every 28 days,22%
same,patients developing pneumonia,[7]; 22-40 mg/m^2 daily for five days every 28 days,16%
"Nc1ccn([C@@H]2O[C@H](CO)[C@@H](O)C2(F)F)c(=O)n1 [gemcitabine, reference compound]",Constipation,"[7]; human, in vivo, iv",Constipation 3%
same,Deep Vein Thrombosis,"[7]; human, in vivo, iv",3%
same,Diarrhea,"[7]; human, in vivo, iv",Diarrhea 2%
same,Edema,"[7]; human, in vivo, iv",Edema 5%
same,Fever,"[7]; human, in vivo, iv",Fever 3%
same,Increased Bilirubin,"[7]; human, in vivo, iv",Increased Bilirubin 41%
same,Neutropenic Fever,"[7]; human, in vivo, iv",Neutropenic Fever 3%
same,Pain,"[7]; human, in vivo, iv",Pain 2%
same,Respiratory,"[7]; human, in vivo, iv",Respiratory 5%
same,State of Consciousness,"[7]; human, in vivo, iv",Consciousness 2%
same,patients with grade III-IV respiratory toxicity,"[7]; human, in vivo, iv",2 out of 40
same,Anemia Grade III,"[7]; human, in vivo",Anemia Grade III 14.3%
same,Hepatotoxicity,"[7]; human, in vivo",(Grade III) 14.3%
same,Infection,"[7]; human, in vivo",(Grade III) 3.6%
same,Leukopenia,"[7]; human, in vivo",10.7%
same,Leukopenia/Neutropenia Toxicity,"[7]; human, in vivo",Grade III 19%
same,Skin Rash,"[7]; human, in vivo",(Grade III) 3.6%
Alemtuzumab,Anemia Grade III-IV,[7]; Grade III-IV,38%
same,Bronchitis/Pneumonitis,[7]; Grade III-IV,13%
same,Dyspnea,[7]; Grade III-IV,Dyspnea 9%
same,Fatigue,[7]; Grade III-IV,Fatigue 5%
same,Fever,[7]; Grade III-IV,Fever 19%
same,Hypotension,[7]; Grade III-IV,Hypotension 5%
same,Neutropenia,[7]; Grade III-IV,64%
same,Pneumonia,[7]; Grade III-IV,Pneumonia 10%
same,Rigors,[7]; Grade III-IV,Rigors 16%
same,Sepsis,[7]; Grade III-IV,Sepsis 10%
same,Thrombocytopenia,[7]; Grade III-IV,Thrombocytopenia 50%
same,Urticaria,[7]; Grade III-IV,Urticaria 5%
Arsenic trioxide,Anemia Grade III-IV,[7]; Grade III-IV,Anemia Grade III-IV 5%
same,Arthralgia/Myalgia,[7]; Grade III-IV,Arthralgia/Mylagia 13%
same,Convulsions,[7]; Grade III-IV,Convulsions 5%
same,Disseminated Intravascular Coagulation,[7]; Grade III-IV,8%
same,Dyspnea,[7]; Grade III-IV,Dyspnea 10%
same,Febrile Neutropenia,[7]; Grade III-IV,Febrile Neutropenia 8%
same,Fever,[7]; Grade III-IV,Fever 5%
same,Hyperglycemia,[7]; Grade III-IV,Hyperglycemia 13%
same,Hypokalemia,[7]; Grade III-IV,Hypokalemia 13%
same,Hypomagnesemia,[7]; Grade III-IV,Hypomagnesemia 13%
same,Hypoxia,[7]; Grade III-IV,Hypoxia 10%
same,Leukocytosis,[7]; Grade III-IV,Leukocytosis 3%
same,Neutropenia,[7]; Grade III-IV,10%
same,Paresthesias,[7]; Grade III-IV,Paresthesias 5%
same,Sepsis,[7]; Grade III-IV,Sepsis 5%
same,Thrombocytopenia,[7]; Grade III-IV,Thrombocytopenia 12%
Denileukin diftitox,Leukopenia,[7]; [10],Leukopenia 6%
same,Neutropenia,[7]; [10],Neutropenia 3%
same,Constitutional Symptoms,[7]; [11],Symptoms 37-47%
same,Gastrointestinal,[7]; [11],Gastrointestinal 20-36%
same,Infection,[7]; [11],Infection 33-43%
same,Infusion-Related Events: Back Pain,[7]; [11],Back Pain 6-11%
same,Infusion-Related Events: Chest Pain/Tightness,[7]; [11],Tightness 9%
same,Infusion-Related Events: Dyspnea,[7]; [11],Dyspnea 6-11%
same,Infusion-Related Events: Hypotension,[7]; [11],Hypotension 8-11%
same,Infusion-Related Events: Pruritis,[7]; [11],Pruritis 6%
same,Infusion-Related Events: Vasodilation,[7]; [11],Vasodilation 3%
same,Rash,[7]; [11],Rash 19-23%
same,Right Heart Failure,[7]; [11],Right Heart Failure 3-6%
same,Thrombotic Events,[7]; [11],Thrombotic Events 3-8%
same,Vascular Leak Syndrome,[7]; [11],Syndrome 17-25%
same,Leukopenia,[7]; [12],Leukopenia 3%
same,Neutropenia,[7]; [12],Neutropenia 3%
Gemcitabine + Cisplatin,Anemia Grade III-IV,[7]; Grade III-IV,25% and 27%
same,Cardiac Dysrhythmia,[7]; Grade III-IV,2.8%
same,Dyspnea,[7]; Grade III-IV,Dyspnea 7%
same,Elevated Creatinine,[7]; Grade III-IV,Elevated Creatinine 4.8%
same,Nausea,[7]; Grade III-IV,Nausea 27%
same,Neurohearing,[7]; Grade III-IV,Neurohearing 6%
same,Neutropenic Sepsis,[7]; Grade III-IV,Neutropenic Sepsis 1%
same,Pulmonary,[7]; Grade III-IV,Pulmonary 3%
same,Vomiting,[7]; Grade III-IV,Vomiting 23%
same,Alopecia,[7]; Grade III,10.5%
same,Diarrhea,[7]; Grade III,Diarrhea (Grade III) 3%
same,Granulocytopenia,[7]; Grade III,Grade III 21.7%
same,Hematuria,[7]; Grade III,4.5%
same,Nausea/Vomiting,[7]; Grade III,(Grade III) 22%
same,Neuromotor,[7]; Grade III,11.5%
same,Neutropenia,[7]; Grade III,41.2%
same,Granulocytopenia,[7]; Grade IV,Grade IV 35.3%
same,Neutropenia,[7]; Grade IV,29.9%
Liposomal doxorubicin,Anemia Grade III-IV,"[7]; human, in vivo, iv",9.8%
same,Leukopenia,"[7]; human, in vivo, iv",Leukopenia 36%
same,Mucositis,"[7]; human, in vivo, iv",Mucositis 5%
same,Nausea/Vomiting,"[7]; human, in vivo, iv",Nausea/Vomiting 15%
same,Neutropenia Grade IV,"[7]; human, in vivo, iv",Grade IV 6%
same,Neutropenic Fever,"[7]; human, in vivo, iv",Neutropenic Fever 11%
same,Palmar-Plantar Erythrodysesthesia,"[7]; human, in vivo, iv",Erythrodysesthesia 29%
same,Peripheral Neuropathy,"[7]; human, in vivo, iv",6%
same,Stomatitis,"[7]; human, in vivo, iv",Stomatitis 14%
same,Thrombocytopenia,"[7]; human, in vivo, iv",Thrombocytopenia 3%
Vinblastine N-Oxide Dihydrochloride,forms a stable clear solution at,[8],about 20 mg/mL
"gemtuzumab: Mylotarg, Wyeth-Ayerst [reference compound]",Anemia Grade III-IV,[7]; Grade III-IV,47%
same,Chills,[7]; Grade III-IV,Chills 13%
same,Dyspnea,[7]; Grade III-IV,Dyspnea 9%
same,Fever,[7]; Grade III-IV,Fever 15%
same,Hyperbilirubinemia,[7]; Grade III-IV,Hyperbilirubinemia 23%
same,Hyperglycemia,[7]; Grade III-IV,Hyperglycemia 12%
same,Leukopenia,[7]; Grade III-IV,96%
same,Nausea,[7]; Grade III-IV,Nausea 9%
same,Neutropenia,[7]; Grade III-IV,98%
same,Neutropenic Fever,[7]; Grade III-IV,Neutropenic Fever 7%
same,Pneumonia,[7]; Grade III-IV,Pneumonia 7%
same,Sepsis,[7]; Grade III-IV,Sepsis 16%
same,Thrombocytopenia,[7]; Grade III-IV,Thrombocytopenia 99%
same,patients with grade III or IV pneumonia,"[7]; acute myelogenous patients, 9 mg/m^2 IV, two doses 14 days apart",7%
